Tested on: Genes belonging to other category
Experiment: DNA chip mRNA expression in yeast, genes belonging to other category (Table 9)
Format: cell-based, Saccharomyces cerevisiae S288C
Method in brief: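 Values are treated/untreated fluorescence ratios from a whole-genome yeast DNA chip hybridized over 12 hours at 65° C with Cy3- or Cy5-labelled cDNA from poly(A) mRNA. Log-phase S288C yeast in YPD at 25° C had received a single toxic chemical for two hours, dosed to slow growth without killing.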

SMILES: CCCCCCCCCCCCOS(=O)(=O)[O-].[Na+] [(18), sodium lauryl sulfate]
- The level of expressed mRNA in the presence of chemical substance/The level of expressed mRNA in the absence of chemical substance (yeast gene YAR010C): 1.0
- The level of expressed mRNA in the presence of chemical substance/The level of expressed mRNA in the absence of chemical substance (yeast gene YBL005W-A): 1.0
- The level of expressed mRNA in the presence of chemical substance/The level of expressed mRNA in the absence of chemical substance (yeast gene YBL041W): 2.0
- The level of expressed mRNA in the presence of chemical substance/The level of expressed mRNA in the absence of chemical substance (yeast gene YBL043W): 1.8
- The level of expressed mRNA in the presence of chemical substance/The level of expressed mRNA in the absence of chemical substance (yeast gene YBL078C): 2.8
- The level of expressed mRNA in the presence of chemical substance/The level of expressed mRNA in the absence of chemical substance (yeast gene YBL101C): 1.1
- The level of expressed mRNA in the presence of chemical substance/The level of expressed mRNA in the absence of chemical substance (yeast gene YBL101W-A): 1.2
- The level of expressed mRNA in the presence of chemical substance/The level of expressed mRNA in the absence of chemical substance (yeast gene YBR009C): 2.4
- The level of expressed mRNA in the presence of chemical substance/The level of expressed mRNA in the absence of chemical substance (yeast gene YBR076W): 1.2
- The level of expressed mRNA in the presence of chemical substance/The level of expressed mRNA in the absence of chemical substance (yeast gene YBR170C): 1.4
- The level of expressed mRNA in the presence of chemical substance/The level of expressed mRNA in the absence of chemical substance (yeast gene YBR173C): 1.6
- The level of expressed mRNA in the presence of chemical substance/The level of expressed mRNA in the absence of chemical substance (yeast gene YBR177C): 0.9
- The level of expressed mRNA in the presence of chemical substance/The level of expressed mRNA in the absence of chemical substance (yeast gene YBR214W): 1.2
- The level of expressed mRNA in the presence of chemical substance/The level of expressed mRNA in the absence of chemical substance (yeast gene YBR239C): 0.9
- The level of expressed mRNA in the presence of chemical substance/The level of expressed mRNA in the absence of chemical substance (yeast gene YBR286W): 1.6
- The level of expressed mRNA in the presence of chemical substance/The level of expressed mRNA in the absence of chemical substance (yeast gene YCL020W): 1.3
- The level of expressed mRNA in the presence of chemical substance/The level of expressed mRNA in the absence of chemical substance (yeast gene YCL027W): 0.8
- The level of expressed mRNA in the presence of chemical substance/The level of expressed mRNA in the absence of chemical substance (yeast gene YCR004C): 3.5
- The level of expressed mRNA in the presence of chemical substance/The level of expressed mRNA in the absence of chemical substance (yeast gene YCR038C): 1.1
- The level of expressed mRNA in the presence of chemical substance/The level of expressed mRNA in the absence of chemical substance (yeast gene YCR067C): 0.9
- The level of expressed mRNA in the presence of chemical substance/The level of expressed mRNA in the absence of chemical substance (yeast gene YCR071C): 1.3
- The level of expressed mRNA in the presence of chemical substance/The level of expressed mRNA in the absence of chemical substance (yeast gene YCR088W): 0.9
- The level of expressed mRNA in the presence of chemical substance/The level of expressed mRNA in the absence of chemical substance (yeast gene YCR106W): 1.2
- The level of expressed mRNA in the presence of chemical substance/The level of expressed mRNA in the absence of chemical substance (yeast gene YDL008W): 1.6
- The level of expressed mRNA in the presence of chemical substance/The level of expressed mRNA in the absence of chemical substance (yeast gene YDL065C): 1.2
- The level of expressed mRNA in the presence of chemical substance/The level of expressed mRNA in the absence of chemical substance (yeast gene YDL192W): 2.3
- The level of expressed mRNA in the presence of chemical substance/The level of expressed mRNA in the absence of chemical substance (yeast gene YDL220C): 0.9
- The level of expressed mRNA in the presence of chemical substance/The level of expressed mRNA in the absence of chemical substance (yeast gene YDL230W): 1.2
- The level of expressed mRNA in the presence of chemical substance/The level of expressed mRNA in the absence of chemical substance (yeast gene YDL238C): 1.3
- The level of expressed mRNA in the presence of chemical substance/The level of expressed mRNA in the absence of chemical substance (yeast gene YDR022C): 1.2
- The level of expressed mRNA in the presence of chemical substance/The level of expressed mRNA in the absence of chemical substance (yeast gene YDR041W): 2.5
- The level of expressed mRNA in the presence of chemical substance/The level of expressed mRNA in the absence of chemical substance (yeast gene YDR055W): 1.9
- The level of expressed mRNA in the presence of chemical substance/The level of expressed mRNA in the absence of chemical substance (yeast gene YDR084C): 1.3
- The level of expressed mRNA in the presence of chemical substance/The level of expressed mRNA in the absence of chemical substance (yeast gene YDR085C): 1.8
- The level of expressed mRNA in the presence of chemical substance/The level of expressed mRNA in the absence of chemical substance (yeast gene YDR104C): 1.0
- The level of expressed mRNA in the presence of chemical substance/The level of expressed mRNA in the absence of chemical substance (yeast gene YDR115W): 1.4
- The level of expressed mRNA in the presence of chemical substance/The level of expressed mRNA in the absence of chemical substance (yeast gene YDR125C): 1.2
- The level of expressed mRNA in the presence of chemical substance/The level of expressed mRNA in the absence of chemical substance (yeast gene YDR168W): 1.4
- The level of expressed mRNA in the presence of chemical substance/The level of expressed mRNA in the absence of chemical substance (yeast gene YDR169C): 1.1
- The level of expressed mRNA in the presence of chemical substance/The level of expressed mRNA in the absence of chemical substance (yeast gene YDR181C): 1.2
- The level of expressed mRNA in the presence of chemical substance/The level of expressed mRNA in the absence of chemical substance (yeast gene YDR188W): 0.8
- The level of expressed mRNA in the presence of chemical substance/The level of expressed mRNA in the absence of chemical substance (yeast gene YDR259C): 0.8
- The level of expressed mRNA in the presence of chemical substance/The level of expressed mRNA in the absence of chemical substance (yeast gene YDR264C): 1.4
- The level of expressed mRNA in the presence of chemical substance/The level of expressed mRNA in the absence of chemical substance (yeast gene YDR315C): 1.2
- The level of expressed mRNA in the presence of chemical substance/The level of expressed mRNA in the absence of chemical substance (yeast gene YDR358W): 1.9
- The level of expressed mRNA in the presence of chemical substance/The level of expressed mRNA in the absence of chemical substance (yeast gene YDR373W): 1.6
- The level of expressed mRNA in the presence of chemical substance/The level of expressed mRNA in the absence of chemical substance (yeast gene YDR388W): 1.3
